From PubChem BioAssay AID1963848 (Molecular Pharmacology Branch, DTP, NCI, 2024)

Test system: 379773-124-R-J2-PDC spheroid viability
Assay: Anticancer human tumor 379773-124-R-J2-PDC patient-derived endometrial carcinoma cell line growth inhibition [POLQ]
Settings: spheroids with HUVEC and MSC; for IC50: curve of first compound; for viability, T/C: stronger effect = lower value
In short: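 PDC + HUVEC + MSC complex spheroids; POLQ inhibitors ± partner drugs; top conc. at/near clinical Cmax, else 10 microM (SN-38 1 microM), half-log dilutions; 37 degrees C, 5% CO2.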
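Also: spheroids exposed to drugs for seven days before readout.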
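For viability, T/C in this document: percent viability relative to DMSO vehicle control taken as 100%.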

## CC1COCCN1c1cc(-c2ccnn2C)c2ccnc(-c3ccn[nH]3)c2n1 (configuration not stated) + Cc1cccc(N(C)C(=O)C2C(O)CCN2c2nc(C)cc(C(F)(F)F)c2C#N)c1
Second compound 0.0316 µM
  IC50: 99.4 nM
Second compound 0.1 µM
  IC50: 102 nM
Second compound 0.316 µM
  IC50: 84.7 nM
Second compound 1 µM
  IC50: 74.2 nM
Second compound 3.16 µM
  IC50: 102 nM
Second compound 10 µM
  IC50: 96.3 nM
Second compound 0.0316 µM, first compound 0.0316 µM
  viability, T/C: 81.4%
Second compound 0.0316 µM, first compound 0.1 µM
  viability, T/C: 49.9%
Second compound 0.0316 µM, first compound 0.316 µM
  viability, T/C: 12.2%
Second compound 0.0316 µM, first compound 1 µM
  viability, T/C: 10.4%
Second compound 0.0316 µM, first compound 3.16 µM
  viability, T/C: 9.61%
Second compound 0.0316 µM, first compound 10 µM
  viability, T/C: 5.75%
Second compound 0.1 µM, first compound 0.0316 µM
  viability, T/C: 83.7%
Second compound 0.1 µM, first compound 0.1 µM
  viability, T/C: 50.7%
Second compound 0.1 µM, first compound 0.316 µM
  viability, T/C: 16.9%
Second compound 0.1 µM, first compound 1 µM
  viability, T/C: 10.2%
Second compound 0.1 µM, first compound 3.16 µM
  viability, T/C: 8.42%
Second compound 0.1 µM, first compound 10 µM
  viability, T/C: 6.47%
Second compound 0.316 µM, first compound 0.0316 µM
  viability, T/C: 79.4%
Second compound 0.316 µM, first compound 0.1 µM
  viability, T/C: 45.1%
Second compound 0.316 µM, first compound 0.316 µM
  viability, T/C: 10.8%
Second compound 0.316 µM, first compound 1 µM
  viability, T/C: 7.57%
Second compound 0.316 µM, first compound 3.16 µM
  viability, T/C: 9.57%
Second compound 0.316 µM, first compound 10 µM
  viability, T/C: 7.53%
Second compound 1 µM, first compound 0.0316 µM
  viability, T/C: 76.5%
Second compound 1 µM, first compound 0.1 µM
  viability, T/C: 40.7%
Second compound 1 µM, first compound 0.316 µM
  viability, T/C: 13.5%
Second compound 1 µM, first compound 1 µM
  viability, T/C: 8.7%
Second compound 1 µM, first compound 3.16 µM
  viability, T/C: 8.89%
Second compound 1 µM, first compound 10 µM
  viability, T/C: 6.67%
Second compound 3.16 µM, first compound 0.0316 µM
  viability, T/C: 76.9%
Second compound 3.16 µM, first compound 0.1 µM
  viability, T/C: 50.7%
Second compound 3.16 µM, first compound 0.316 µM
  viability, T/C: 14%
Second compound 3.16 µM, first compound 1 µM
  viability, T/C: 9.29%
Second compound 3.16 µM, first compound 3.16 µM
  viability, T/C: 8.28%
Second compound 3.16 µM, first compound 10 µM
  viability, T/C: 6.05%
Second compound 10 µM, first compound 0.0316 µM
  viability, T/C: 70.5%
Second compound 10 µM, first compound 0.1 µM
  viability, T/C: 49.3%
Second compound 10 µM, first compound 0.316 µM
  viability, T/C: 14%
Second compound 10 µM, first compound 1 µM
  viability, T/C: 9.57%
Second compound 10 µM, first compound 3.16 µM
  viability, T/C: 9.04%
Second compound 10 µM, first compound 10 µM
  viability, T/C: 5.97%
